Test [1] concerns SU-DHL-6 B cell lymphoma cells. The test is described as follows: SU-DHL-6 subcutaneous xenograft. In kind it is in vivo, mouse. As to the method: Additional subcutaneous xenograft tumor models were tested for the ability of anti-CXCR4 antibodies to inhibit tumor growth, in experiments similar to those described above and in Example 9. […] Although the tumor cells in vivo were stainable by the mAb by immunohistochemistry, it is unclear at what stage of their tumor growth CXCR4 began to be expressed.

Test [2] relates to Ramos cells. As to the kind of experiment: Ramos subcutaneous tumor cell model. In kind it is in vivo, mouse. The note with it: IP day 0 and 7; 15 mg/kg (Fab′ 10 mg/kg, also day 3 and 10). The source says: In this example, the ability of the anti-CXCR4 human antibodies to inhibit proliferation of an established solid tumor in vivo was examined using a Ramos subcutaneous tumor cell model. In this assay, 10×10^6 Ramos cells/mouse were implanted into the flank region of each mouse and allowed to grow to a mean size of 40 mm^3, calculated by length×width×height/2 of the tumors. The mice then received an intraperitoneal (IP) injection of a first dose of antibody (designated as day 0 of treatment) and received a second IP dose of antibody on day 7. Mice treated with a Fab′ fragment antibody also received IP antibody doses on day 3 and day 10. […] Tumor volume and mouse body weight were measured at regular intervals (approximately 2-3 times/week) between day 0 and day 30 post dosing. The results of the experiment are presented in FIGS. 12A, 12B and 12C, which show mean tumor volume (FIG. 12A), median tumor volume (FIG. 12B) and median % body weight change (FIG. 12C). […] All treatments were well-tolerated as indicated by no significant body weight change. The differences in body weights between treatments were most likely due to the weights of the tumors.

Test [3] deals with MM cells. The note with it: compared to vehicle-treated mice; Roccaro et al., 2012; cited from earlier work.
For test [4], the system named is CLL cells. The note with it: Kashyap et al., 2012; cited from earlier work.
In test [5] the test system is Ramos cells. The test is described as follows: Ramos cell proliferation, Cell-Titer-Glo. In kind it is cell-based, human. As to conditions: 40 nM; 72 hours; compared to isotype control. As to the method: Ramos cells were suspended at 1×10^5 cells/mL in growth media, incubated with the relevant antibodies, including isotype controls, and other test agents and cultured for 72 hours at 37° C. Cell-Titer-Glo (Promega) was added to wells, mixed, and incubated at room temperature for 10 minutes. The plate was read on a GloMax Luminometer (Promega).

Test [6] relates to Nomo-1. The test is described as follows: Nomo-1 AML xenograft. In kind it is in vivo, SCID mice. From the text:
In the Nomo-1 model (7.5 million cells implanted subcutaneously as in Example 14).

Test [7] relates to human peripheral blood mononuclear cells (PBMCs). The test is described as follows: Flow cytometry binding to human PBMC subsets. The note with it: 33 μg/ml; CD3+, CD20+, CD11b+, CD14+ subsets; vs isotype-matched control. The source says:
Human PBMCs were isolated by standard methods and different cellular subsets were isolated by FACS. In particular, the following cellular subsets were isolated: (i) CD3^+, (ii) CD20^+; (iii) CD11b^+ and (iv) CD14^+.
In general terms: Flow cytometry measures light scatter and fluorescence of single cells or particles in a stream.

Test [8] deals with Ramos cells. The test is described as follows: Ramos systemic tumor cell model, survival. As to conditions: second experiment. In kind it is in vivo, mouse. Here is the method: In this example, the ability of an anti-CXCR4 human antibody to increase survival time of mice was examined using a Ramos systemic tumor cell model. In this assay, 1×10^6 Ramos cells/mouse were injected intravenously (IV) into each mouse on Day 0. The mice then received an intraperitoneal (IP) injection of a first dose of antibody on Day 1 (i.e., one day after IV administration of tumor cells) and received four more IP doses of antibody, on days 5, 8, 15 and 22 (mice treated with the positive control antibody were treated only on day 1). […] Dose response studies had previously found 15 mg/kg to be an effective dose of anti-CD19 (data not shown). Percent survival was measured at regular intervals between Day 0 and Day 50 post dosing (hind leg paralysis was used as the endpoint of the experiment). […] The median numbers of days of survival for the mice treated with either vehicle or the isotype control were 23 and 25.5 days, respectively, whereas the median number of days of survival of the mice treated with one dose of the anti-CD19 positive control was 39 days.
The median number of days of survival for the mice treated with the vehicle or the isotype controls were 23-24 days, whereas the median number of days of survival of the mice treated with one dose of the anti-CD19 positive control was 39 days.

The subject of test [9] is primary MM cells. The note with it: Roccaro et al., 2012; cited from earlier work.
Test [10] deals with MDA-MB231 human breast cancer cells. As to the kind of experiment: MDA-MB231 breast cancer xenograft. In kind it is in vivo, mouse. From the text: In one experiment, 7.5×10^6 MDA-MB231 human breast cancer cells/mouse were implanted into the flank region of each mouse and allowed to grow to a mean size of 100 mm^3, calculated by length×width×height/2 of the tumors, which was day 7 post-implantation. The mice were randomized into different treatment groups and received an intraperitoneal (IP) injection of a first dose of antibody on day 7 post-implantation, received a second IP dose of antibody on day 14 post-implantation and then received a third dose on day 46 post-implantation. […] Tumor volumes were measured at regular intervals and the mean and median tumor volume determined for each treatment group at each interval.

Test [11] has as its system parental JJN-3 cells. As to the kind of experiment: JJN-3 MM xenograft in SCID mice. In kind it is in vivo. The note with it: Day 25; compared to vehicle control; MDX-1338 10 mg/kg/dose IP, bortezomib 0.8 mg/kg/dose IV. The source says: 5 million JJN-3 cells/mouse were implanted into SCID mice and the mice were randomized into groups of 8 when the tumor volume reached approximately 77 mm^3.

Test [12] has as its system CCRF-CEM. As to the kind of experiment: CCRF-CEM tumor growth inhibition (monotherapy). In kind it is in vivo.
For test [13], the system named is Bortezomib-resistant JJN-3R cells. As to the kind of experiment: JJN-3R MM xenograft in SCID mice. The test is classed as in vivo.
The mark [14] stands for this setting: Day 59 post-implantation, 15 mg/kg IP.

The source of these data is patent US10428151B2, “Treatment of hematologic malignancies with an anti-CXCR4 antibody” (BRISTOL-MYERS SQUIBB COMPANY, priority 2011, dated 2019).

Where “and” joins values, the source holds several entries; their conditions need not be identical. Equal entries are not always repeated.

Take “BMS-936564: fully human anti-CXCR4 monoclonal antibody; VH SEQ ID NO: 25, VL SEQ ID NO: 29”: the “% Tumor Growth Inhibition (Monotherapy)” value in test [1] (DHL6) was 55% and 77%; in test [6] (Nomo-1), 88%; in test [12], 72%; in test [13] (JJN3R), 97%. The tumor growth inhibition entry is reported as “approximately 60%” in test [1] (SU-DHL-6, 15 mg/kg); 52% in test [11]; “MDX-1338 = 100%” in test [13] (JJN-3R). The “tumor cell growth (tumor volume)” value in test [2] is given as “significantly inhibited tumor cell growth”. The “MM cell dissemination to distant bone marrow niches” value in test [3] was “less MM cell dissemination”. Besides, the “inhibition of CXCL12-mediated F-actin polymerization in CLL cells” value in test [4] is “at lower concentrations than with AMD-3100”. For the same substance, the “maximum inhibition of Ramos cell proliferation” value in [5] was “about 50%”. Moreover, the “median tumor growth inhibition” value came out at 88% in test [6] (day 34, 10 mg/kg/dose, compared to isotype or vehicle control) and 100% in test [13] (day 25, 10 or 30 mg/kg/dose IP, compared to isotype control). For the same substance, the “binding to PBMC subsets” value in [7] is “capable of binding effectively to each of the four subsets”. Further, the “efficacy in prolonging mouse survival” value in [8] (15 mg/kg) was “highly efficacious in prolonging mouse survival”. Besides, the “percent of mice survived at end of experiment” value in test [8] (five doses 15 mg/kg, 120 days after implantation) was found to be 100%. In addition, the “adhesion of primary MM cells to BMSCs” value in test [9] is on record as “inhibited by BMS936564 in a dose-dependent manner”. The Mean tumor volume in test [10] (Day 52 post-implantation, 15 mg/kg IP) was determined as 79 mm^3. In [10] (setting [14]), this substance returned a Median tumor volume of 108 mm^3. Moreover, the “TGI (%) (median)” value in [10] (setting [14]) was 52%. For the same substance, the mice tumor free result in [10] (day 59, n=9) is “one”. Moreover, the “mice tumor-free at the end of study” value in test [13] (30-mg/kg group) is on record as 4 out of 7.
